The results in this text go back to US11612601B1, “Targeting epidermal growth factor to treat vascular calcification” (THE FLORIDA INTERNATIONAL UNIVERSITY BOARD OF TRUSTEES, priority 2022, dated 2023).

The structures appear in SMILES notation.

In experiment [1] the test system is CKD mice. The experiment in a line: EVs isolated from mouse aortas: CAV1 immunoblot and TNAP activity. Conditions: CKD mice treated vs CKD. In kind it is in vivo. The protocol: Immediately after scanning, the tissue was incubated in a digestive solution of sucrose (0.25 M, Sigma, S7903), NaCl (0.12 M, Fisher Chemical, BP358), KCl (0.01 M, Fisher Chemical, P217), Tris hydrochloride (0.02 M, Fisher Chemical, BP153), and collagenase (600 U/mL, Worthington Biochemical, LS004174) for 2 hours at 37° C. The solution was then centrifuged at 1,000×g for 15 min to remove cell debris and at 33,000×g for 30 min to remove microvesicles. Finally, the supernatants were ultracentrifuged (Beckman Coulter, Optima MAX-TL) at 100,000×g for 1 hour to isolate the EVs of interest. The pellet was suspended in RIPA lysis and extraction buffer (G Biosciences, 786-489) supplemented with pierce protease inhibitor (Thermo Scientific, A32963). To yield sufficient protein concentration for analysis, EVs isolated from 2 to 3 aortas were pooled.
For EV TNAP activity measurement, after ultracentrifugation at 100,000×g for 1 hour, the pellets were re-suspended in 120 μL buffer assay. […]
To quantify the total protein, the membranes were stained using 2% w/v Ponceau stain (Alfa Aesar, AAJ6074409) for 20 min, followed by one wash with 5% acetic acid and milliQ water for 5 min. After imaging, the intensity of each lane was measured in ImageJ for total protein normalization. […] The protein bands were visualized with Odyssey CLx scanner (Li-Cor), and quantified using Image Studio Lite software (Li-Cor).

The test system of experiment [2] is Osteoblasts (hFOB 1.19). Description: In vitro calcification of osteoblasts, Alizarin Red S staining. The experiment is classed as cell-based, human. Conditions: OS + 2.5 μM vs OS, 21 days; p=0.86. The protocol: Osteoblasts (from human fetus, hFOB 1.19, ATCC, CRL-11372) were cultured and grown in DMEM containing 10% v/v bovine calf serum and 1% v/v penicillin-streptomycin. Osteoblasts (passage 4-6) were harvested using 0.25% trypsin-EDTA solution (Caisson Labs, TRL01), seeded with a density of 5,200 cell.cm^−2, and incubated for 24 hours at 37° C. and 5% CO2 with controlled humidity. The cells were treated in three groups of control, OS, and OS supplemented with tyrphostin AG1478 (2.5 μM) for 21 days and media changed every three days. […] Similar to the VSMC experiments, EV-free media were added to the cultures on days 6, 13, and 20, and collected 24 hours later on days 7, 14, and 21. Collected media were centrifuged at 1,000×g for 5 min to remove cell debris. EVs were isolated using the ultracentrifugation at 100,000×g for 1 hour.
At the end of experiments (28 and 21 days of treatment on VSMCs and osteoblasts, respectively), media were removed, and the cells were fixed using Formalin (10%, Fisher Chemical, SF100). To visualize in vitro calcification, Alizarin Red S stain (ARS, Ricca, 500-32) was added to the wells and incubated for 30 min at room temperature. […]
To quantify the in vitro calcification, ARS stain was extracted using acetic acid (1.67 M, Fisher Chemical, A38S) on a shaker. […] Sample absorbance of 405 nm was measured using a multi-mode reader (BioTek, Synergy HTX).

As to `COc1cc2ncnc(Nc3cccc(Cl)c3)c2cc1OC` [AG1478, tyrphostin AG1478], the “CAV1 protein on EVs isolated from aortas” value in experiment [1] (p<0.0001) is on record as “significantly lower”. The “TNAP activity of EVs isolated from aortas” value in experiment [1] (p=0.003) is listed as “significantly lower”. In experiment [2], the “quantification of the in vitro calcification of osteoblasts (Alizarin red)” value is given as “no significant difference”.
